According to US20070140897A1, “PH STABLE BIGUANIDE COMPOSITION AND METHOD OF TREATMENT AND PREVENTION OF INFECTIONS” (priority 2005, published 2007):
Converted amounts (≈) assume the structure as drawn.

Assays:
[1] = Pharmacokinetics after single topical ocular dose 10 μg/eye (BL06029); assay type: in vivo, rabbit; details: single dose 10 μg/eye (BL06029); for Cmax / Tmax: rabbit, topical or ocular, 10 ug
[2] = tested on: acantamoeba cysts and trophazoites; details: cited from earlier work
[3] = Anterior ocular and systemic pharmacokinetics after repeated topical ocular administration (TID, 10 doses); assay type: in vivo, male New Zealand Composite rabbits; details: for AUC(0-24) / DNAUC(0-24) / Cmax / Tmax: TID dosing (dose 10), 10 μg/eye; for Cmax / Tmax: topical or ocular, 10 ug
Experimental: This study was to investigate anterior ocular and systemic pharmacokinetics of alexidine following repeated topical ocular administration (3 doses/day; 10 doses total) of a 100 ppm solution to male New Zealand Composite rabbits.
This study was carried out using a non-crossover design and a total of 52 naïve male New Zealand Composite rabbits. Each animal (fed) received a topical ocular dose of alexidine at approximately 7 am, 12 noon and 5 pm on Day 1, Day 2 and Day 3. On the morning of Day 4, each animal received the final (10th) topical ocular dose. For each dose administration, animals received approximately 100 μL of a 100 ppm solution (10 μg dose) as a topical instillation into the conjunctival sac of each eye using a positive-displacement pipette.
On Day 4, rabbits (n=4 per collection time) were euthanized and the eyes enucleated and dissected. Samples of blood (centrifuged to obtain plasma), tear, conjunctiva, cornea, and aqueous humor were obtained from both eyes of each animal. Samples were collected prior to administration of the final dose, and 5, 15, and 30 min and 1, 2, 4, 8, 24, 32, 48, 56, and 72 hr after dosing. Non-compartmental methods were used for pharmacokinetic analysis of concentration versus time data. Due to the destructive sampling regimen employed in this study average composite data were used in the pharmacokinetic analysis.
Abbreviations used in this diagram are as follows. Cmax is defined as the maximum mean concentration attained after topical instillation (±SD). Tmax is the time that Cmax was observed.

[4] = Loss of Alexidine due to non-specific binding to glass vial at different pH; assay type: physicochemical; details: 20 ppm, two weeks
Experimental: Alexidine sample solutions (20 ppm) were prepared at different pHs and quantitative amount were stored in glass vial for two weeks. At the end of storage, the sample solution was removed and thoroughly rinsed with distilled water. The empty sample vials were then rinsed with 0.1 N HCl solution. The concentration of Alexidine in the acid solution was determined by HPLC assay and the amount recovered from glass wall was calculated in Table 1.

Fusarium Keratomycosis = details: 0.02% solution, rabbit model; cited from earlier work
Aspergillus keratitis = details: 0.02%; cited from earlier work
Acanthamoeba keratitis = details: case report, recurrence in corneal graft; cited from earlier work
[5] = male, New Zealand Composite, rabbit, Conjunctiva
[6] = male, New Zealand Composite, rabbit, Cornea

Molecule: CCCCC(CC)CNC(=N)NC(=N)NCCCCCCNC(=N)NC(=N)NCC(CC)CCCC (stereo not drawn) [Alexidine, 1,1′-hexamethylene-bis[5-(2-ethylhexyl)biguanide]]
- levels in aqueous humor ([1]; Aq. Humor): No Quantifiable levels (<0.5 ng/mL)
- AUC(0-24) ([1]; Conjunctiva): 5697 µg·min/g
- DNAUC(0-24) ([1]; Conjunctiva): 570 (min · ug/g) ÷ ug
- AUC(0-24) ([1]; Cornea): 557 µg·min/g
- DNAUC(0-24) ([1]; Cornea): 55.7 (min · ug/g) ÷ ug
- levels in plasma ([1]; Plasma): No Quantifiable levels (<0.5 ng/mL)
- Cmax ([1]; Conjunctiva): 6440 ng/g
- Tmax ([1]; Conjunctiva): 480 min
- Cmax ([1]; Cornea): 997 ng/g
- Tmax ([1]; Cornea): 15 min
- minimum inhibitory concentration [2]: 6.3 mg/L (≈ 12.4 µM)
- AUC(0-24) ([3]; Conjunctiva): 11461 µg·min/g
- DNAUC(0-24) ([3]; Conjunctiva): 1146 (min · ug/g) ÷ ug
- AUC(0-24) ([3]; Cornea): 2727 µg·min/g
- DNAUC(0-24) ([3]; Cornea): 273 (min · ug/g) ÷ ug
- mean concentrations in conjunctiva ([3]; at all times through the 72 hr after the final 10-μg dose): ≥ 5100 ng/g
- AUC(0-t) ([3]; male, New Zealand Composite, rabbit, conjunctiva, topical, repeated administration of a 10-μg dose, value used for AUC:MIC90 ratio, read-out: AUC(0-24)): 191 µg·h/mL
- Cmax [3, 5]: 15100 ± 4120 ng/g
- Tmax [3, 5]: 5 min
- Cmax [3, 6]: 3740 ± 1790 ng/g
- Tmax [3, 6]: 30 min
- tolerability ([3]; repeated administration of a 100 ppm solution, topical ocular): well tolerated in all animals
- % Adsorbed on Glass Vial ([4]; pH 3): 1.0%
- % Adsorbed on Glass Vial ([4]; pH 5): 4.0%
- % Adsorbed on Glass Vial ([4]; pH 7): 7.5%
- % Adsorbed on Glass Vial ([4]; pH 9): 12.5%
- % Adsorbed on Glass Vial ([4]; pH 11): 23.5%

Molecule: poly(hexamethylene biguanide) [PHMB]
- reducing fungal growth (Fusarium Keratomycosis): effective at reducing fungal growth
- effectiveness in experimental Aspergillus keratitis (Aspergillus keratitis): moderately effective
- treatment of recurrences of Acanthamoeba keratitis (Acanthamoeba keratitis): successfully treated
